Data published in patent US20100298141A1, “SUBSTITUTED PYRIDINE N-OXIDE HERBICIDES” (E. I. DU PONT DE NEMOURS AND COMPANY, priority 2007, published 2010).

How the values were obtained:
Assay in all cases: Test F preemergence test
Surinam grass = assay type: in vivo, Brachiaria decumbens; conditions: scale 0 to 100; for Surinam Grass plant response rating: 125 g ai/ha
In short: (§1)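 Compound in a non-phytotoxic solvent blend with surfactant is applied preemergence to planted seeds or postemergence to sugarcane plants. Plants and controls stay in the greenhouse 14 to 21 days before visual comparison.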

large crabgrass = assay type: in vivo, Digitaria sanguinalis; conditions: scale 0 to 100
In short: as §1

kochia = assay type: in vivo, Kochia scoparia; conditions: scale 0 to 100
In short: as §1

mustard = assay type: in vivo, Brassica nigra; conditions: scale 0 to 100
In short: as §1

guineagrass = assay type: in vivo, Panicum maximum; conditions: scale 0 to 100
In short: as §1

dallisgrass = assay type: in vivo, Paspalum dilatatum; conditions: scale 0 to 100
In short: as §1

barnyardgrass = assay type: in vivo, Echinochloa crus-galli
In short: as §1

southern sandbur = assay type: in vivo, Cenchrus echinatus; conditions: scale 0 to 100; for Sandbur plant response rating: 125 g ai/ha
In short: as §1

Italian ryegrass = assay type: in vivo, Lolium multiflorum; conditions: scale 0 to 100; for Ryegrass, Italian plant response rating: 125 g ai/ha
In short: as §1

common purslane = assay type: in vivo, Portulaca oleracea; conditions: scale 0 to 100
In short: as §1

common groundsel = assay type: in vivo, Senecio vulgaris; conditions: scale 0 to 100
In short: as §1

Virginia dayflower = assay type: in vivo, Commelina virginica; conditions: scale 0 to 100
In short: as §1

annual bluegrass = assay type: in vivo, Poa annua; conditions: scale 0 to 100
In short: as §1

quackgrass = assay type: in vivo, Elytrigia repens; conditions: scale 0 to 100
In short: as §1

field bindweed = assay type: in vivo, Convolvulus arvensis; conditions: scale 0 to 100
In short: as §1

common mallow = assay type: in vivo, Malva sylvestris; conditions: scale 0 to 100
In short: as §1

[1] = 16 g ai/ha, preemergence, scale 0 to 100 (0 no effect, 100 complete control)
[2] = 62 g ai/ha, Preemergence, scale 0 to 100
[3] = 125 g ai/ha, preemergence, scale 0 to 100
[4] = Preemergence, 31 g ai/ha, scale 0 to 100

Cc1cc[n+]([O-])c(S(=O)(=O)Cc2c(C(F)(F)F)nn(C)c2OCC(F)(F)F)c1 [Compound 31]
25: Plant response rating, Purslane (common purslane; 16 g ai/ha, preemergence)
95: Plant response rating, Surinam Grass (Surinam grass; Preemergence, 62 g ai/ha) | Plant response rating, Crabgrass, Large (large crabgrass; Preemergence, 31 g ai/ha) | Plant response rating, Black Mustard (mustard; Preemergence, 31 g ai/ha) | Dallisgrass plant response rating (dallisgrass; 62 g ai/ha, Preemergence) | Plant response rating, Barnyardgrass (barnyardgrass; [4]) | Quackgrass plant response rating (quackgrass; 125 g ai/ha, preemergence)
40: Plant response rating, Black Mustard (mustard; 16 g ai/ha, preemergence) | Plant response rating, Sandbur (southern sandbur; 16 g ai/ha, preemergence) | Purslane plant response rating (common purslane; 62 g ai/ha, Preemergence) | Field Bindweed plant response rating (field bindweed; 62 g ai/ha, Preemergence)
85: Plant response rating, Surinam Grass (Surinam grass; Preemergence, 31 g ai/ha)
75: Bluegrass plant response rating (annual bluegrass; 62 g ai/ha, Preemergence) | Quackgrass plant response rating (quackgrass; 62 g ai/ha, Preemergence)
35: Plant response rating, Dallisgrass (dallisgrass; 16 g ai/ha, preemergence) | Plant response rating, Bluegrass (annual bluegrass; 16 g ai/ha, preemergence)
20: Plant response rating, Surinam Grass (Surinam grass; 16 g ai/ha, preemergence)
50: Plant response rating, Barnyardgrass (barnyardgrass; [1]) | Plant response rating, Ryegrass, Italian (Italian ryegrass; 16 g ai/ha, preemergence)
100: Surinam Grass plant response rating (Surinam grass; preemergence) | Crabgrass, Large plant response rating (large crabgrass; 125 g ai/ha, preemergence) | Kochia plant response rating (kochia; 125 g ai/ha, preemergence) | Black Mustard plant response rating (mustard; 62 g ai/ha, Preemergence) | Black Mustard plant response rating (mustard; 125 g ai/ha, preemergence) | Guineagrass plant response rating (guineagrass; 62 g ai/ha, Preemergence) | Guineagrass plant response rating (guineagrass; 125 g ai/ha, preemergence) | Plant response rating, Guineagrass (guineagrass; Preemergence, 31 g ai/ha) | Dallisgrass plant response rating (dallisgrass; 125 g ai/ha, preemergence) | Barnyardgrass plant response rating (barnyardgrass; [2]) | Barnyardgrass plant response rating (barnyardgrass; [3]) | Sandbur plant response rating (southern sandbur; preemergence) | Plant response rating, Sandbur (southern sandbur; Preemergence, 62 g ai/ha) | Groundsel plant response rating (common groundsel; 125 g ai/ha, preemergence) | Dayflower plant response rating (Virginia dayflower; 62 g ai/ha, Preemergence) | Dayflower plant response rating (Virginia dayflower; 125 g ai/ha, preemergence) | Mallow plant response rating (common mallow; 62 g ai/ha, Preemergence) | Mallow plant response rating (common mallow; 125 g ai/ha, preemergence) | Plant response rating, Mallow (common mallow; Preemergence, 31 g ai/ha)
80: Plant response rating, Guineagrass (guineagrass; 16 g ai/ha, preemergence)
60: Plant response rating, Dallisgrass (dallisgrass; Preemergence, 31 g ai/ha)
65: Kochia plant response rating (kochia; 62 g ai/ha, Preemergence) | Purslane plant response rating (common purslane; 125 g ai/ha, preemergence) | Plant response rating, Dayflower (Virginia dayflower; Preemergence, 31 g ai/ha) | Plant response rating, Bluegrass (annual bluegrass; Preemergence, 31 g ai/ha) | Plant response rating, Quackgrass (quackgrass; Preemergence, 31 g ai/ha)
15: Plant response rating, Quackgrass (quackgrass; 16 g ai/ha, preemergence)
90: Plant response rating, Sandbur (southern sandbur; Preemergence, 31 g ai/ha) | Ryegrass, Italian plant response rating (Italian ryegrass; preemergence) | Plant response rating, Ryegrass, Italian (Italian ryegrass; Preemergence, 62 g ai/ha) | Plant response rating, Ryegrass, Italian (Italian ryegrass; Preemergence, 31 g ai/ha) | Bluegrass plant response rating (annual bluegrass; 125 g ai/ha, preemergence)
70: Field Bindweed plant response rating (field bindweed; 125 g ai/ha, preemergence)
0: Plant response rating, Kochia (kochia; 16 g ai/ha, preemergence) | Plant response rating, Kochia (kochia; Preemergence, 31 g ai/ha) | Plant response rating, Field Bindweed (field bindweed; 16 g ai/ha, preemergence) | Plant response rating, Field Bindweed (field bindweed; Preemergence, 31 g ai/ha) | Plant response rating, Mallow (common mallow; 16 g ai/ha, preemergence)
30: Plant response rating, Crabgrass, Large (large crabgrass; 16 g ai/ha, preemergence) | Plant response rating, Dayflower (Virginia dayflower; 16 g ai/ha, preemergence)

CCn1nc(C(F)(F)F)c(CS(=O)(=O)c2cccc[n+]2[O-])c1OCC(F)(F)F [Compound 63]
95: Crabgrass, Large plant response rating (large crabgrass; 62 g ai/ha, Preemergence) | Plant response rating, Guineagrass (guineagrass; Preemergence, 31 g ai/ha) | Barnyardgrass plant response rating (barnyardgrass; [2]) | Quackgrass plant response rating (quackgrass; 62 g ai/ha, Preemergence)
65: Plant response rating, Sandbur (southern sandbur; 16 g ai/ha, preemergence) | Plant response rating, Bluegrass (annual bluegrass; Preemergence, 31 g ai/ha) | Plant response rating, Quackgrass (quackgrass; Preemergence, 31 g ai/ha)
0: Plant response rating, Kochia (kochia; 16 g ai/ha, preemergence) | Kochia plant response rating (kochia; 62 g ai/ha, Preemergence) | Plant response rating, Kochia (kochia; Preemergence, 31 g ai/ha) | Plant response rating, Black Mustard (mustard; 16 g ai/ha, preemergence) | Plant response rating, Ryegrass, Italian (Italian ryegrass; 16 g ai/ha, preemergence) | Plant response rating, Purslane (common purslane; 16 g ai/ha, preemergence) | Purslane plant response rating (common purslane; 62 g ai/ha, Preemergence) | Plant response rating, Purslane (common purslane; Preemergence, 31 g ai/ha) | Plant response rating, Groundsel (common groundsel; 16 g ai/ha, preemergence) | Groundsel plant response rating (common groundsel; 62 g ai/ha, Preemergence) | Groundsel plant response rating (common groundsel; 125 g ai/ha, preemergence) | Plant response rating, Groundsel (common groundsel; Preemergence, 31 g ai/ha) | Plant response rating, Dayflower (Virginia dayflower; 16 g ai/ha, preemergence) | Plant response rating, Quackgrass (quackgrass; 16 g ai/ha, preemergence) | Plant response rating, Field Bindweed (field bindweed; 16 g ai/ha, preemergence) | Field Bindweed plant response rating (field bindweed; 62 g ai/ha, Preemergence) | Field Bindweed plant response rating (field bindweed; 125 g ai/ha, preemergence) | Plant response rating, Field Bindweed (field bindweed; Preemergence, 31 g ai/ha) | Plant response rating, Mallow (common mallow; 16 g ai/ha, preemergence)
98: Plant response rating, Mallow (common mallow; Preemergence, 31 g ai/ha)
90: Plant response rating, Crabgrass, Large (large crabgrass; Preemergence, 31 g ai/ha) | Black Mustard plant response rating (mustard; 125 g ai/ha, preemergence) | Bluegrass plant response rating (annual bluegrass; 62 g ai/ha, Preemergence)
60: Plant response rating, Ryegrass, Italian (Italian ryegrass; Preemergence, 31 g ai/ha)
15: Plant response rating, Dallisgrass (dallisgrass; 16 g ai/ha, preemergence)
70: Plant response rating, Surinam Grass (Surinam grass; 16 g ai/ha, preemergence) | Plant response rating, Guineagrass (guineagrass; 16 g ai/ha, preemergence)
25: Plant response rating, Crabgrass, Large (large crabgrass; 16 g ai/ha, preemergence) | Plant response rating, Bluegrass (annual bluegrass; 16 g ai/ha, preemergence)
20: Purslane plant response rating (common purslane; 125 g ai/ha, preemergence)
80: Plant response rating, Surinam Grass (Surinam grass; Preemergence, 31 g ai/ha) | Dallisgrass plant response rating (dallisgrass; 62 g ai/ha, Preemergence) | Plant response rating, Barnyardgrass (barnyardgrass; [1]) | Plant response rating, Barnyardgrass (barnyardgrass; [4]) | Plant response rating, Ryegrass, Italian (Italian ryegrass; Preemergence, 62 g ai/ha)
100: Surinam Grass plant response rating (Surinam grass; preemergence) | Plant response rating, Surinam Grass (Surinam grass; Preemergence, 62 g ai/ha) | Crabgrass, Large plant response rating (large crabgrass; 125 g ai/ha, preemergence) | Kochia plant response rating (kochia; 125 g ai/ha, preemergence) | Guineagrass plant response rating (guineagrass; 62 g ai/ha, Preemergence) | Guineagrass plant response rating (guineagrass; 125 g ai/ha, preemergence) | Dallisgrass plant response rating (dallisgrass; 125 g ai/ha, preemergence) | Barnyardgrass plant response rating (barnyardgrass; [3]) | Sandbur plant response rating (southern sandbur; preemergence) | Plant response rating, Sandbur (southern sandbur; Preemergence, 62 g ai/ha) | Plant response rating, Sandbur (southern sandbur; Preemergence, 31 g ai/ha) | Ryegrass, Italian plant response rating (Italian ryegrass; preemergence) | Dayflower plant response rating (Virginia dayflower; 62 g ai/ha, Preemergence) | Dayflower plant response rating (Virginia dayflower; 125 g ai/ha, preemergence) | Plant response rating, Dayflower (Virginia dayflower; Preemergence, 31 g ai/ha) | Bluegrass plant response rating (annual bluegrass; 125 g ai/ha, preemergence) | Quackgrass plant response rating (quackgrass; 125 g ai/ha, preemergence) | Mallow plant response rating (common mallow; 125 g ai/ha, preemergence)
50: Black Mustard plant response rating (mustard; 62 g ai/ha, Preemergence) | Plant response rating, Black Mustard (mustard; Preemergence, 31 g ai/ha) | Plant response rating, Dallisgrass (dallisgrass; Preemergence, 31 g ai/ha)
